From patent US12186286B2 (Paracelsus Neuroscience II, LLC, priority 2019, dated 2025)
“Also recorded” adds a separate entry of the source. Read-outs that look alike come from different tables or passages of the source.

Tests used:
human KCa3.1 = target: T1, human KCa3.1 (Homo sapiens, UniProt O15554); conditions: human KCa3.1 expressed in recombinant cells; read-out: In-vitro IC50 (nM)*; cited from earlier work
T1 construct: expressed in transfected cells

[1] = cited from earlier work; for free brain concentration / free plasma concentration / Cerebrospinal fluid (CSF) concentration: 10 mg/kg oral; for brain concentration / plasma concentration: 40 mg/kg i.p.
locomotor activity = conditions: rat, doses required for efficacy in the chronic constriction injury model; cited from earlier work
[2] = tested on: primary rat cortical microglia; assay: IL-1β release from primary microglia; format: cell-based
Protocol: (§1) FIG. 4A and FIG. 4B. Effect of KCa3.1 inhibition on NO and IL-1β release from primary microglia. […] (B) Primary rat cortical microglia were incubated with LPS (3 EU/ml) for 24 hours to induce expression of IL-1β.
(§2) After 24 hours, media was assayed for nitrite (stable metabolite of NO). […] Primary rat cortical microglia were also treated with LPS (3 EU/ml, 3 hours) to stimulate the production of pro-IL-1β.

[3] = tested on: mechanical hypersensitivity induced by peripheral nerve injury; conditions: rat, 10, 30 and 100 mg/kg p.o., only the highest dose significant; cited from earlier work
[4] = tested on: primary rat cortical microglia; assay: NO (nitrite) release from LPS-treated primary microglia; format: cell-based; conditions: LPS 3 EU/ml, 24 hours
Protocol: as §1, §2

[5] = clinical trials, healthy volunteers and sickle cell patients; cited from earlier work
sickle cell disease [6] = conditions: Phase 3, sickle cell patients, cited from earlier work
[7] = tested on: ~70 additional neuronal drug targets (50 neuronal receptors, 8 enzymes, 5 transporters and 7 ion channels); conditions: cited from earlier work
sickle cell disease [8] = conditions: Phase 2, 10 mg/day, sickle cell patients; cited from earlier work
[9] = tested on: cytochrome P450-dependent enzymes; conditions: cited from earlier work
[10] = clinical trials; cited from earlier work
[11] = Pharmacokinetics and CNS penetration in mouse; format: in vivo
Protocol: Since experimental surgery-related inflammation is resolved seven days […] the animals are tested, it supported the hypothesis that the efficacy was mediated by inhibition of KCa3.1 on microglia in the spinal cord or brain rather than peripheral immune cells. […] Based on the rat and mouse pharmacokinetic data CNS penetrance in humans seems promising.

human CYP2C19 = human CYP2C19 (Homo sapiens, UniProt P33261); conditions: cited from earlier work
human CYP2B6 = target: T2, human CYP2B6 (Homo sapiens, UniProt P20813); conditions: cited from earlier work
T2 sequence (P20813 1-491): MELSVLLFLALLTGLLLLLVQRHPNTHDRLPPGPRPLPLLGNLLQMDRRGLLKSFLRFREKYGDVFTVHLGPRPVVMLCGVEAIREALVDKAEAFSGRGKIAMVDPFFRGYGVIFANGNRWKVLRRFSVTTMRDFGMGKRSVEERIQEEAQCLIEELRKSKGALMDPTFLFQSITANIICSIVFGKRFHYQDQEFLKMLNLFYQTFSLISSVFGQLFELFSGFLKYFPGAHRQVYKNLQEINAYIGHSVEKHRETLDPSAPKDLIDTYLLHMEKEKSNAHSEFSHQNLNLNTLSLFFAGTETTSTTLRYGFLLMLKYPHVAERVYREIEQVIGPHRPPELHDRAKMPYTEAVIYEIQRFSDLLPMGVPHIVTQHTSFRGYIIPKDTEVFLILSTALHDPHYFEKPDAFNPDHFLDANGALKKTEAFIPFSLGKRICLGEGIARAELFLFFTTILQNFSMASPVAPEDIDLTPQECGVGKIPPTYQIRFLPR

ischemic stroke = conditions: rat, cited from earlier work
human CYP3A4 = human CYP3A4 (Homo sapiens, UniProt P08684); conditions: cited from earlier work
[12] = primates; cited from earlier work
[13] = tested on: non-selective cation current in primary microglia; conditions: primary microglia stimulated with LPC; cited from earlier work

Sequence of human CYP2C19 (P33261 whole entry): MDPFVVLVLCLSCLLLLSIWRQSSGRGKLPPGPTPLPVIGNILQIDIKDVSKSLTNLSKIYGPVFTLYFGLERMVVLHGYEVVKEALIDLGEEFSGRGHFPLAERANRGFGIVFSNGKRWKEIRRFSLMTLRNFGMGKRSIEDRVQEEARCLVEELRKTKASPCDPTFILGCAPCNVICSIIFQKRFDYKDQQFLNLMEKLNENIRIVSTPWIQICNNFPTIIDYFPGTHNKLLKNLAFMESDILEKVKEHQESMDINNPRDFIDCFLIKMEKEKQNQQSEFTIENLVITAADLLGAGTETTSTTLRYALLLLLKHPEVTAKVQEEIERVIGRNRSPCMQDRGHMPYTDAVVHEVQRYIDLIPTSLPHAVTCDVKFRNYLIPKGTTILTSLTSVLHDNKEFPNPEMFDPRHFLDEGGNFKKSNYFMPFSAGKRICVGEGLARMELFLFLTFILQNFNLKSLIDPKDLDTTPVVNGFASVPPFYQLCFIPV
Sequence of human CYP3A4 (P08684 whole entry): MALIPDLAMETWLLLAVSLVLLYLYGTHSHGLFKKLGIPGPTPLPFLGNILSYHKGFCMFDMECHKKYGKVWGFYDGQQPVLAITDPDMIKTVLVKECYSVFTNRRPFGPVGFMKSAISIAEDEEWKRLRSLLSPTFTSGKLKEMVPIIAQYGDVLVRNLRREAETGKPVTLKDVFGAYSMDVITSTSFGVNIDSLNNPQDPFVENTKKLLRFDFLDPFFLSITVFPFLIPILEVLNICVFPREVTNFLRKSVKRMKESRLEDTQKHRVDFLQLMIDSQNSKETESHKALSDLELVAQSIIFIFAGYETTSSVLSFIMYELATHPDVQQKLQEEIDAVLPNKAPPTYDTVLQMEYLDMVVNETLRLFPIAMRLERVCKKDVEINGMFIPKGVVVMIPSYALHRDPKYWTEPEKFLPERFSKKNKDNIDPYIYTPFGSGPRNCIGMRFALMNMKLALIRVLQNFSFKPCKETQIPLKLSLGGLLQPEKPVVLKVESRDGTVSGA

In the case of O=C1CSc2ccccc2N1Cc1cccc(C(F)(F)F)c1 [NS6180, 4-[[3-(trifluoromethyl)phenyl]methyl]-2H-1,4-benzothiazin-3(4H)-one], the IC50 (human KCa3.1) is listed as 9.4 nM, the “Cmax-Total (nM) Plasma” value ([1]; rat, 10 mg/kg p.o.) is listed as 186 nM and the “T½” value ([1]; rat, 10 mg/kg p.o.) is listed as 3.8 h.
For NC(=O)C(c1ccccc1)(c1ccc(F)cc1)c1ccc(F)cc1 [Senicapoc, senicapoc], the locomotor activity (locomotor activity) is listed as “did not observe any significant impact; also recorded: did not alter activity”, the IC50 ([2]; LPS 3 EU/ml 3 hours, then BzATP 1 mM) is listed as 15 nM and the IC50 ([2]; figure legend: LPS 3 EU/ml for 24 hours (n=3)) is listed as 1.3 nM. The mechanical hypersensitivity [3] was “attenuated”, the IC50 ([4]; average) was 39 nM and the EC50 ([4]; representative experiment (n=3), read-out: EC50, production of NO (nitrite)) was 0.9 nM. For the same compound, the free brain concentration ([1]; rat, four hours post-dose) was 136 nM, the free plasma concentration ([1]; rat, four hours post-dose) was 65 nM and the “Cerebrospinal fluid (CSF) concentration” value ([1]; rat, four hours post-dosing) was 121 nM. For the same compound, the free brain concentration ([1]; rat, one hour post-dose) was 37 nM, the free plasma concentration ([1]; rat, one hour post-dose) was 17 nM and the “Cerebrospinal fluid (CSF) concentration” value ([1]; rat, one hour post-dosing) was 25 nM. For the same compound, the “Cmax-Unbound (nM) CSF” value ([1]; rat, 10 mg/kg p.o., CSF) was 121 nM, the “Cmax-Total (nM) Brain” value ([1]; rat, 10 mg/kg p.o.) was 17,000 nM and the “Cmax-Unbound (nM) Brain” value ([1]; rat, 10 mg/kg p.o.) was 136 nM. The “Cmax-Total (nM) Plasma” value ([1]; rat, 10 mg/kg p.o.) was 2,400 nM, the “Cmax-Unbound (nM) Plasma” value ([1]; rat, 10 mg/kg p.o.) was 65 nM and the “T½” value ([1]; rat, 10 mg/kg p.o.) was 1 h. The “% unbound Plasma” value ([1]; rat) was 2.7%, the blood-brain barrier crossing ([1]; rat) was “cross the blood-brain barrier” and the “tolerability / side effects in humans” value [5] was “without any significant side effects; also recorded: well tolerated; also recorded: safe and has a low incidence of side effects”. For the same compound, the “pain outcome measures (vaso-occlusive / painful crises)” value (sickle cell disease [6]) was “no improvement”, the “pain outcome measures (vaso-occlusive / painful crises)” value (sickle cell disease [6]; listed as senicapoc) was “no effect” and the “inhibition of ~70 additional neuronal drug targets” value ([7]; 1 μM) was “None of the targets tested was inhibited”. For the same compound, the off target effects ([7]; at concentrations that block KCa3.1) was “no known off target effects”, the “hematocrit and hemoglobin levels” value (sickle cell disease [8]) was “significantly increased” and the hemolysis (sickle cell disease [8]) was “reduced”. The “effect on cytochrome P450-dependent enzymes” value [9] was “does not suffer from metabolic instability or effects on cytochrome P450”, the t1/2 in humans [10] was 552 h and the “brain versus plasma levels” value [11] was “higher levels in brain than plasma”. The “Cmax-Total (nM) Plasma” value ([11]; 10 mg/kg p.o., plasma) was 709 nM, the fraction unbound ([11]; brain, read-out: % unbound Brain) was 0.008 and the Tmax ([11]; in vivo, po, 10 mg/kg p.o.) was 0.33 h. It also gave a half-life ([11]; in vivo, po, 10 mg/kg p.o., read-out: T½ (converted)) of 3.1 h and a fraction unbound ([11]; plasma, read-out: % unbound Plasma) of 0.015.
In the case of Clc1ccccc1C(c1ccccc1)(c1ccccc1)n1cccn1 [TRAM-34], the “IC50, CYP2C19” value (human CYP2C19) is listed as “low micromolar range”, the “IC50, CYP2B6” value (human CYP2B6) is listed as “low micromolar range” and the neuronal loss (ischemic stroke; 10 and 40 mg/kg i.p.) is listed as “significantly attenuated”. The “post stroke infarct volume” value (ischemic stroke; 10 and 40 mg/kg i.p.) was “significantly attenuated”, the “outcome when given 12 hours after the ischemic insult” value (ischemic stroke; given 12 hours after insult) was “improved the outcome” and the “extent of microglial ED1 staining” value (ischemic stroke) was “significantly reduced”. The neurological deficit score (ischemic stroke) was “improved”, the “Cmax-Total (nM) Brain” value ([1]; rat, 10 mg/kg p.o.) was roughly 2500 nM and the “Cmax-Unbound (nM) Brain” value ([1]; rat, 10 mg/kg p.o.) was 50 nM. The “Cmax-Total (nM) Plasma” value ([1]; rat, 10 mg/kg p.o.) was roughly 2500 nM, the “Cmax-Unbound (nM) Plasma” value ([1]; rat, 10 mg/kg p.o.) was 50 nM and the “Tmax” value ([1]; rat, 10 mg/kg p.o.) was 0.5 to 1 h. The “T½” value ([1]; rat, 10 mg/kg p.o.) was roughly 2 h, the brain concentration ([1]; rat, 8 hours) was roughly 1000 nM and the plasma concentration ([1]; rat, 8 hours) was roughly 1000 nM. The brain concentration ([1]; rat, 12 hours) was 400 nM, the plasma concentration ([1]; rat, 12 hours) was 400 nM and the “% unbound Plasma” value ([1]; rat) was 2%. The “% unbound in plasma” value ([1]; rat) was “approximately 2%”, the half-life ([1]; rats) was roughly 2 h and the “IC50, CYP3A4” value (human CYP3A4) was “low micromolar range”. The half-life [12] was roughly 2 h and the “effect on cytochrome P450-dependent enzymes” value [9] was “no effect”.
In the case of charybdotoxin, the “effect on LPC signals” value [13] is listed as “no effect”.
